From patent US10051861B2, “N-arylamidine-substituted trifluoroethyl sulfide derivatives as acaricides and insecticides” (BAYER CROPSCIENCE AG, priority 2011, dated 2018)

test system: greenhouse red spider mite (Tetranychus urticae); assay: Tetranychus urticae spray test, OP-resistant (TETRUR), bean leaf disks; assay type: in vivo; conditions: Tetranychus urticae, foliar, 144 h, application rate 100 g/ha, after 6 days; read-out: efficacy (spider mites killed)
Description: After 6 days, the effect in % is determined.

Compound | pest or weed control at 100 g/ha [%]
Cc1cc(F)c(/N=C(\N)C2(Cl)CC2)cc1SCC(F)(F)F [Ia-58] | 100

same assay, conditions: Tetranychus urticae, foliar, 144 h, application rate 500 g/ha, after 6 days; read-out: efficacy (spider mites killed)

Compound | pest or weed control at 500 g/ha [%]
Cc1cc(Cl)c(/N=C(\N)C(F)(F)C(F)(F)Cl)cc1SCC(F)(F)F [Ia-30] | 100
CN(C)/C(=N/c1cc(SCC(F)(F)F)c(Br)cc1Br)C(F)(F)F [Ia-32] | 100
CN/C(=N/c1cc(SCC(F)(F)F)c(Br)cc1Br)C(F)(F)F [Ia-37] | 100
Cc1cc(F)c(/N=C(\N)c2cccnc2)cc1SCC(F)(F)F [Ia-40] | 100
Cc1cc(F)c(/N=C(\N)c2ccncn2)cc1SCC(F)(F)F [Ia-42] | 100
CN/C(=N/c1cc(SCC(F)(F)F)c(Br)cc1F)C(F)(F)F [Ia-43] | 100
Cc1cc(F)c(/N=C(\N)c2ccc(Cl)nc2)cc1SCC(F)(F)F [Ia-46] | 100
Cc1cc(F)c(/N=C(\N)C(F)(F)C(F)(F)Cl)cc1SCC(F)(F)F [Ia-47] | 100
Cc1cc(Cl)c(/N=C(\N)C(F)F)cc1SCC(F)(F)F [Ia-48] | 100
Cc1cc(Cl)c(SCC(F)(F)F)cc1/N=C(\N)c1ccccn1 [Ia-49] | 100
CCN(CC)/C(=N/c1cc(SCC(F)(F)F)c(C)cc1F)C(F)(F)F [Ia-51] | 100
CN/C(=N/c1cc(SCC(F)(F)F)c(Cl)cc1F)C(F)(F)F [Ia-52] | 100
Cc1cc(Cl)c(SCC(F)(F)F)cc1/N=C(\N(C)C)C(F)(F)F [Ia-53] | 100
Cc1cc(F)c(/N=C(/NC2COC2)C(F)(F)F)cc1SCC(F)(F)F [Ia-54] | 100
Cc1cc(F)c(/N=C2/CCCN2CC(F)F)cc1SCC(F)(F)F [Ia-55] | 100
Cc1cc(Cl)c(/N=C(\N)C(F)(F)F)cc1SCC(F)(F)F [Ia-56] | 100
CN(C)/C(=N\c1cc(SCC(F)(F)F)c(Cl)cc1Cl)C(F)(F)F [Ia-57] | 100
Cc1cc(F)c(/N=C(/c2cccnc2)N(C)C)cc1SCC(F)(F)F [Ia-59] | 90
CN/C(=N\c1cc(SCC(F)(F)F)c(C)cc1F)c1ccc(Cl)cc1 [Ia-60] | 100
CN/C(=N\c1cc(SCC(F)(F)F)c(C)cc1F)c1cccnc1 [Ia-61, N′-{2-Fluoro-4-methyl-5-[(2,2,2-trifluoroethyl)sulfanyl]phenyl}-N-methylpyridine-3-carboximidamide] | 100

Compound | pest or weed control at 500 g/ha [%]
CN1CCCC/C1=N\c1cc(SCC(F)(F)F)c(Cl)cc1Cl [Ia-62] | 90
Cc1cc(F)c(/N=C(\N)c2ccccn2)cc1SCC(F)(F)F [Ia-63] | 90
CN/C(=N\c1cc(SCC(F)(F)F)c(C)cc1Cl)c1cccnc1 [Ia-64] | 100
Cc1cc(C)c(SCC(F)(F)F)cc1/N=C(\N)C(F)(F)C(F)(F)Cl [Ia-65] | 100
Cc1cc(F)c(/N=C(\N)C2CC2(F)Cl)cc1SCC(F)(F)F (stereo not shown) [Ia-67] | 100
CN1CCC/C1=N\c1cc(SCC(F)(F)F)c(Cl)cc1Cl [Ia-68] | 90
CN/C(=N\c1cc(SCC(F)(F)F)c(C)cc1F)c1ccccc1Cl [Ia-69] | 100
Cc1cc(Cl)c(SCC(F)(F)F)cc1/N=C(\N)C(F)(F)C(F)(F)F [Ia-70] | 100
Cc1cc(Cl)c(/N=C(/c2ccc(Cl)cc2)N(C)C)cc1SCC(F)(F)F [Ia-71] | 100
CN/C(=N\c1cc(SCC(F)(F)F)c(C)cc1F)c1ccccn1 [Ia-72] | 100
Cc1cc(F)c(/N=C(\N)c2ccncc2)cc1SCC(F)(F)F [Ia-73] | 100
Cc1cc(Cl)c(SCC(F)(F)F)cc1/N=C(\N)C1(Cl)CC1 [Ia-74] | 100
Cc1cc(F)c(/N=C(\N)C2CC2(Cl)Cl)cc1SCC(F)(F)F (stereo not shown) [Ia-75] | 100
Cc1cc(Cl)c(SCC(F)(F)F)cc1/N=C(\N)C(F)(F)F [Ia-76] | 100
CN(C)/C(=N/c1ccc(Cl)c(SCC(F)(F)F)c1)C(F)(F)F [Ia-77] | 100
Cc1cc(C)c(SCC(F)(F)F)cc1/N=C(\N)c1ccc(Cl)nc1 [Ia-81] | 100
COC/C(N)=N/c1cc(SCC(F)(F)F)c(C)cc1F [Ia-82] | 100
N/C(=N\c1cccc(SCC(F)(F)F)c1)c1ccccn1 [Ia-83] | 100
Cc1cc(F)c(/N=C(/c2ccccc2Cl)N(C)C)cc1SCC(F)(F)F [Ia-84] | 100
Cc1cc(F)c(/N=C(/NC2(C)CC2)C(F)(F)F)cc1SCC(F)(F)F [Ia-85] | 100

Compound | pest or weed control at 500 g/ha [%]
Cc1cc(F)c(/N=C(\N)c2ccc(C(F)(F)F)nc2)cc1SCC(F)(F)F [Ia-86] | 100
CN/C(=N\c1cc(SCC(F)(F)F)c(Cl)cc1C)C(F)(F)F [Ia-87] | 100
Cc1cc(F)c(/N=C2\CCCCN2C)cc1SCC(F)(F)F [Ia-90] | 80
CN/C(=N\c1cc(SCC(F)(F)F)c(C)cc1C)c1cccnc1 [Ia-91] | 90
Cc1cc(F)c(/N=C(/C2CC2)N(C)C)cc1SCC(F)(F)F [Ia-93] | 100
Cc1cc(F)c(/N=C(\N)C2CCC2)cc1SCC(F)(F)F [Ia-94] | 100
Cc1cc(C)c(SCC(F)(F)F)cc1/N=C(\N)c1ccncc1 [Ia-95] | 100
CN/C(=N/c1cc(SCC(F)(F)F)c(F)cc1Cl)C(F)(F)F [Ia-97] | 100
Cc1cc(C)c(SCC(F)(F)F)cc1/N=C(\N)c1ccccn1 [Ia-98] | 100
Cc1cc(F)c(/N=C(\N)C2CCCO2)cc1SCC(F)(F)F (stereo not shown) [Ia-99] | 100
N/C(=N\c1cccc(SCC(F)(F)F)c1)C1(Cl)CC1 [Ia-100] | 100
N/C(=N\c1cccc(SCC(F)(F)F)c1)c1ccncc1 [Ia-101] | 90
Cc1cc(Cl)c(SCC(F)(F)F)cc1/N=C(\N)C1CC1 [Ia-102] | 90
N/C(=N\c1cccc(SCC(F)(F)F)c1)c1cccnc1 [Ia-104] | 90
Cc1cc(C)c(SCC(F)(F)F)cc1/N=C1\CCCN1C [Ia-105] | 90
Cc1cc(F)c(/N=C(\N(C)C)C2(C(C)C)CC2(Cl)Cl)cc1SCC(F)(F)F (stereo not shown) [Ia-106] | 90
N/C(=N\c1cccc(SCC(F)(F)F)c1)c1ccc(Cl)nc1 [Ia-107] | 90
Cc1cc(F)c(/N=C(\NC2CC2)C2CC2)cc1SCC(F)(F)F [Ia-108] | 80

same assay, conditions: application rate 500 g/ha, after 6 days

Compound | efficacy (spider mites killed) [%]
Cc1cc(F)c(N=C(N)C(F)(F)C(F)(F)C(F)(F)C(F)(F)C(F)(F)C(F)(F)C(F)(F)F)cc1SCC(F)(F)F [Ia-06] | 100
Cc1cc(F)c(N=C(N(Cc2ccccn2)Cc2ccccn2)C(F)(F)F)cc1SCC(F)(F)F [Ia-08] | 100
Cc1cc(F)c(N=C(NS(=O)(=O)C(F)(F)F)C(F)(F)F)cc1SCC(F)(F)F [Ia-16] | 100
CNC(=Nc1cc(SCC(F)(F)F)c(C)cc1Cl)C(F)(F)F [Ia-20] | 100
Cc1ccc(N=C(N)C(F)(F)F)cc1SCC(F)(F)F [Ia-25] | 100
